We go through one sequence from patent publication US20200190210A1, “NEW TARGET FOR TREATING CANCER” (TONGJI UNIVERSITY SUZHOU INSTITUTE BIOMEDICAL RESEARCH …, priority 2017, published 2020).

In assay [1] the test system is MDAMB231-BoM-1833-TGL cells. As to the kind of experiment: Breast cancer metastasis mouse model (ventricular injection of tumor cells, in vivo imaging, survival). The settings on record: peptide injected from Day -1 every other day; for metastasis of breast cancer, peptide: mice, IgG negative control, FIGS. 11 and 12. The procedure: The day before the injection of tumor cells into mice was recorded as Day −1 of the experiment. On Day −1, the mice were fasted for 4 hours, injected with the desired concentration of FC17-7 antibody obtained in Example 1 or IgG (as a negative control), and given food after 2 hours. After the first injection, the mice were injected with antibodies every three days. On Day 0 of the experiment, MDAMB231-BoM-1833-TGL cells were blocked with antibodies according to the method of Example 4. After 6 hours, the cells were digested. The medium was removed, and the cells were washed with PBS once and resuspended in PBS to a concentration of 1×10^6 cells/ml. Then, mice were injected with 1×10^5 tumor cells/100 μl by ventricular injection to establish a mouse metastasis model. Every other week, the mice were subjected to in vivo imaging to record the fluorescence signal data. By establishing a breast cancer metastasis model, periodically administration of the monoclonal antibody FC17-7 prepared in Example 1 was performed in mice.
The day before the injection of tumor cells into mice was recorded as Day −1 of the experiment. On Day −1, the mice were fasted for 4 hours, and injected with the desired concentration of the extracellular loop 1 peptide of TM4SF1 prepared in Example 3 or IgG (as negative control), and given food after 2 hours. After the first injection of the peptide, the mice were injected with the peptide every other day. On Day 0 of the experiment, MDAMB231-BoM-1833-TGL cells were blocked with the peptide according to the method of Example 9. After 6 hours, the cells were digested. The medium was removed, and the cells were washed with PBS once, and resuspended in PBS to a concentration of 1×10^6 cells/ml. For the method of establishing a breast cancer metastasis mouse model, refer to the method in Example 7.

Assay [2] has as its target T1, interaction of TM4SF1 and DDR1 (Homo sapiens, UniProt P30408).
T1 construct: expressed in transfected cells; host or cells: 293FT cells
T1 sequence (P30408 1-202): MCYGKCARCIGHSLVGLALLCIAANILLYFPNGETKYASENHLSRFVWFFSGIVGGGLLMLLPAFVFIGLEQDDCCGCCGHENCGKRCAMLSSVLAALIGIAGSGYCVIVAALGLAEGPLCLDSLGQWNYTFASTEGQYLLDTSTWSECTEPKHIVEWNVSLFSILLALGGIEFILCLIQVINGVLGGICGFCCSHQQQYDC
The assay can be described thus: Co-immunoprecipitation / Western Blotting of TM4SF1 and DDR1 co-overexpressed in 293FT cells, Collagen I stimulated. In kind it is cell-based. Conditions: 293FT cells co-overexpressing TM4SF1 and DDR1, peptide overexpressed in 293FT cells and purified, Collagen I 10 μg/ml, 6 hours, FIG. 9. The procedure:
293FT cells were cultured in DMEM-HG medium and digested with trypsin. The cells were counted and seeded at a density of 1×10^6 cells per dish in 6 cm (diameter) culture dish. The next day, 700 μl of serum-free DMEM-HG medium was respectively added to two centrifuge tubes. 10 μl of P-Pei transfection reagent was added to the first centrifuge tube. 1 μg PQCXIP-hTM4SF1 plasmid and 1 μg PQCXIN-hDDR1 plasmid were added to the second centrifuge tube and mixed well. The resultant from the second centrifuge tube was added to the first centrifuge tube and incubated for 20 min to obtain the transfection mixture. The culture medium of the 293FT cells seeded the day before was removed, and the transfection mixture above was added to the culture dish and incubated for 6 hours. Fresh medium was added to continue the culture. 48 hours after the transfection, the medium was removed, 2 ml of serum-free DMEM-HG medium containing a certain concentration of FC17-7 antibody obtained in Example 1 or IgG (as a negative control) was added. After incubating the culture dish at 37° C. for 5 minutes, Collagen I was added to the culture dish to a final concentration of 10 μg/ml. The cells were cultured for 6 hours and then collected. […] After the elution, the mixture was centrifuged at 3,000 rpm for 2 min to collect the supernatant, and the protein expression was detected by Western Blotting. […]

Assay [3] deals with p-STAT3 (TM4SF1 associated non-classical DDR1 signaling pathway). The assay can be described thus: Western Blotting of p-STAT3, TM4SF1 associated non-classical DDR1 signaling pathway, in cells overexpressing TM4SF1 and DDR1. It is filed as cell-based, human. The settings on record: Collagen I 10 μg/ml, 12 hours, FIG. 10; for inhibition of P-STAT3 / downstream signal transduction (Western Blotting), peptide: cells overexpressing TM4SF1 and DDR1, PBS negative control. On the procedure: The transfection method has been described in Example 4. 48 hours after transfection, the medium was removed, 2 ml of serum-free DMEM-HG medium containing a certain concentration of FC17-7 antibody obtained in Example 1 or IgG (as a negative control) was added. After incubating the culture dish at 37° C. for 5 minutes, Collagen I was added to the culture dish to a final concentration of 10 μg/ml and cultured for 12 hours. The cells were collected and lysed with IP-RIPA buffer in a refrigerator at 4° C. for 1 h. The lysate was sonicated twice (15 s 30% power), then centrifuged at 12,000 rpm for 30 min. The supernatant was sampled to determine the protein concentration, and the protein concentration of each sample was adjusted to be the same. The sample was subjected to SDS-PAGE electrophoresis, and the proteins were transferred to a membrane by conventional way in Western Blotting, and then stained with the antibody.
The transfection method has been described in Example 4. 48 hours after transfection, the medium was removed, 2 ml of serum-free DMEM-HG medium containing a certain concentration of the extracellular loop 1 peptide of TM4SF1 prepared in Example 3 or PBS (as a negative control) was added. After incubating the culture dish at 37° C. for 5 minutes, Collagen I was added to the culture dish to a final concentration of 10 μg/ml. The cells were cultured for 12 hours and then collected. The cells were lysed with IP-RIPA buffer in a refrigerator at 4° C. for 1 h. The lysate was sonicated twice (15 s 30% power), and then centrifuged at 12,000 rpm for 30 min. The supernatant was sampled to determine the protein concentration, and the protein concentration of each sample was adjusted to be the same. The sample was subjected to SDS-PAGE electrophoresis, and the proteins were transferred to a membrane by a conventional way used in Western Blotting, and then stained with antibody.
Background: Immunoblotting shows a protein as a band on a membrane.

Where [4] appears, read: listed as small extracellular loop 1 peptide of TM4SF1.

On to “FPNGETKYASENHLSRC [extracellular loop 1 peptide of TM4SF1]”, for which the results for the “metastasis of breast cancer, peptide” value in assay [1] and in assay [1] (setting [4]) were “significantly inhibit the metastasis of breast cancer” and “significantly inhibits metastasis of breast cancer”, respectively. For the same sequence, the “survival time of the mice, peptide” value in assay [1] (FIG. 13) was “prolong the survival time of the mice”; in assay [1] (FIG. 13, listed as small extracellular loop 1 peptide of TM4SF1), “prolongs the survival mice”. Moreover, the “disruption of the interaction between TM4SF1 and DDR1 (co-immunoprecipitation), peptide” value in assay [2] was “significantly disrupt the interaction between TM4SF1 and DDR1”; in assay [2] (setting [4]), “disrupts the interaction between TM4SF1 and DDR1”. Further, the results for the “inhibition of P-STAT3 / downstream signal transduction (Western Blotting), peptide” value in assay [3] and in assay [3] (setting [4]) were “began to inhibit P-STAT3” and “inhibits downstream signal transduction”, respectively. In addition, the “concentration at which the peptide began to inhibit P-STAT3” value in assay [3] (different concentrations of peptide, dose-dependent) came to 9 µg/mL.
